# The Deep4Chem optical property database
# Assay: solvent given as SMILES
compound,measurement,setting,value
CC(C)[Si](C#Cc1c2nc3ccccc3nc2c(C#C[Si](C(C)C)(C(C)C)C(C)C)c2nc3c(ccc4ccccc43)nc12)(C(C)C)C(C)C,emission maximum,in CCCCCC,656 nm
[C-]#[N+]c1ccc(-c2ccc(N(C)C)cc2)cc1,emission maximum,in C1CCCCC1,360 nm
same,emission maximum,in C1CCOC1,408 nm
same,emission maximum,in C1COCCO1,397 nm
same,emission maximum,in CC#N,429 nm
same,emission maximum,in CC(C)=O,422 nm
same,emission maximum,in CCCCCC,357 nm
same,emission maximum,in CCOC(C)=O,406 nm
same,emission maximum,in CN(C)C=O,433 nm
same,emission maximum,in CO,430 nm
same,emission maximum,in CS(C)=O,447 nm
same,emission maximum,in Cc1ccccc1,387 nm
same,emission maximum,in ClC(Cl)Cl,405 nm
same,emission maximum,in ClCCl,412 nm
same,emission maximum,in O,417 nm
same,emission maximum,in c1ccncc1,422 nm
COc1cc2c(cc1OC)C1=C3C(=O)N4C=Cc5cc(OC)c(OC)cc5C4=C3C(=O)N1C=C2,emission maximum,in CN(C)C=O,602 nm
same,emission maximum,in ClC(Cl)Cl,597 nm
COc1ccc2c3ccc(OC)cc3c3cc4c(C)cc(=O)oc4cc3c2c1,emission maximum,in ClC(Cl)Cl,475 nm
Cc1cc(C)c(B(c2c(C)cc(C)cc2C)c2ccc3ccc4cccc5ccc2c3c45)c(C)c1,emission maximum,in Cc1ccccc1,423 nm
Cc1ccc(C2=C3C=CC(c4ccccc4)=[N+]3[B-](F)(F)n3c2ccc3-c2ccccc2)cc1,emission maximum,in C1CCCCC1,585 nm
same,emission maximum,in C1CCOC1,586 nm
same,emission maximum,in C1COCCO1,587 nm
same,emission maximum,in CCOC(C)=O,583 nm
same,emission maximum,in CO,582 nm
same,emission maximum,in Cc1ccccc1,589 nm
same,emission maximum,in ClC(Cl)Cl,588 nm
CCCCn1cc(/C=C/c2cc(=O)oc3cc(C)ccc23)c2ccccc21,emission maximum,in CS(C)=O,532 nm
same,emission maximum,in ClC(Cl)Cl,474 nm
CCCCCCc1ccc(-n2c3[n+](c4c5ccccc5c5ccccc5c42)[B-](C)(C)c2cc(N(c4ccccc4)c4ccccc4)ccc2-3)cc1,emission maximum,in C1CCOC1,435 nm
same,emission maximum,in CC#N,446 nm
same,emission maximum,in Cc1ccccc1,428 nm
same,emission maximum,in ClCCl,437 nm
[NH3+]c1ccc2ccc([O-])cc2c1,emission maximum,in O,425 nm
CCCC1=Cc2nc1ccc1[nH]c(cc1CCC)c1nc(c(OC(C)=O)cc3[nH]c2cc3CCC)C(CCC)=C1,emission maximum,in Cc1ccccc1,650 nm
c1csc(-c2cnc(-c3cccs3)c3nonc23)c1,emission maximum,in C1CCCCC1,567 nm
same,emission maximum,in CC(C)=O,612 nm
same,emission maximum,in CCCCCC,564 nm
same,emission maximum,in CCCO,611 nm
same,emission maximum,in CCO,614 nm
same,emission maximum,in CCOCC,587 nm
same,emission maximum,in CO,616 nm
same,emission maximum,in Cc1ccccc1,600 nm
same,emission maximum,in ClC(Cl)(Cl)Cl,580 nm
same,emission maximum,in ClC(Cl)Cl,611 nm
same,emission maximum,in O=[N+]([O-])c1ccccc1,614 nm
same,emission maximum,in OCC(O)CO,633 nm
same,emission maximum,in OCc1ccccc1,628 nm
same,emission maximum,in c1ccc2ncccc2c1,625 nm
same,emission maximum,in c1ccccc1,601 nm
same,emission maximum,in c1ccncc1,617 nm
COc1cc(/C=C/c2cc[n+](Cc3ccc(Br)cc3)cc2)ccc1O,emission maximum,in CC#N,557 nm
same,emission maximum,in CC(C)=O,562 nm
same,emission maximum,in CC(C)CO,556 nm
same,emission maximum,in CC(C)O,559 nm
same,emission maximum,in CCC#N,559 nm
same,emission maximum,in CCCCCCO,553 nm
same,emission maximum,in CCCCCO,554 nm
same,emission maximum,in CCCCO,558 nm
same,emission maximum,in CCCO,559 nm
same,emission maximum,in CCO,564 nm
same,emission maximum,in CN(C)C=O,565 nm
same,emission maximum,in CN(C)P(=O)(N(C)C)N(C)C,567 nm
same,emission maximum,in CO,566 nm
same,emission maximum,in CS(C)=O,568 nm
CC(C)(C)c1ccc2c(c1)B1c3cc(C(C)(C)C)ccc3Oc3cc(-n4c5ccccc5c5c6c(c7ccccc7n6-c6ccccc6)c6c(c7ccccc7n6-c6ccccc6)c54)cc(c31)O2,emission maximum,in Cc1ccccc1,456 nm
CC(C)(C)c1ccc(N(c2ccc(S(=O)(=O)c3ccc(S(=O)(=O)c4ccc(N(c5ccc(C(C)(C)C)cc5)c5ccccc5C(C)(C)C)cc4)cc3)cc2)c2ccccc2C(C)(C)C)cc1,emission maximum,in Cc1ccccc1,454 nm
same,emission maximum,in c1cc(-n2c3ccccc3c3ccccc32)nc(-n2c3ccccc3c3ccccc32)c1,463.53 nm
